# Laboratory results reported in US20240299481A1, “STEPHANIA CEPHARANTHA-DERIVED ALKALOID-CONTAINING PREPARATION” (JAPAN AS REPRESENTED BY DIRECTOR-GENERAL OF NATIONAL …, priority 2021, published 2024).
# Tested on: novel coronavirus mutant strain (alpha mutant strain)
# Assay type: cell-based, SARS-COV-2
SMILES,antiviral effect (number of viral RNA with increasing addition concentration),antiviral effect compared with the preparation / other alkaloids
COc1cc2c3cc1Oc1c(OC)c(OC)cc4c1[C@@H](Cc1ccc(O)c(c1)Oc1ccc(cc1)C[C@@H]3N(C)CC2)N(C)CC4 [Berbamine],showed antiviral effects,weak antiviral effect
COc1cc2c3c(c1OC)Oc1ccc(cc1)C[C@@H]1c4c(cc(OC)c(OC)c4Oc4ccc(cc4)C[C@H]3N(C)CC2)CCN1C [Cycleanine],showed antiviral effects,comparable to the Stephania cepharantha-derived alkaloid-containing preparation
COc1ccc2cc1Oc1ccc(cc1)C[C@H]1c3c(cc4c(c3Oc3cc5c(cc3OC)CCN(C)[C@@H]5C2)OCO4)CCN1C [Cepharanthine],showed antiviral effects,comparable to the Stephania cepharantha-derived alkaloid-containing preparation
COc1ccc2cc1Oc1ccc(cc1)C[C@H]1c3cc(c(OC)cc3CCN1C)Oc1c(OC)c(OC)cc3c1[C@@H](C2)N(C)CC3 [Isotetrandrine],showed antiviral effects,comparable to the Stephania cepharantha-derived alkaloid-containing preparation
